This note sets out measurements from ChEMBL document CHEMBL1772949, “Replacement of the hydrophobic part of 9-cis-retinoic acid with cyclic terpenoid moiety results in RXR-selective agonistic activity” (Bioorg Med Chem, 2011).

Assay [1] concerns the target T1, Retinoic acid receptor beta (Homo sapiens) (UniProt P10826).
T1 sequence (whole entry): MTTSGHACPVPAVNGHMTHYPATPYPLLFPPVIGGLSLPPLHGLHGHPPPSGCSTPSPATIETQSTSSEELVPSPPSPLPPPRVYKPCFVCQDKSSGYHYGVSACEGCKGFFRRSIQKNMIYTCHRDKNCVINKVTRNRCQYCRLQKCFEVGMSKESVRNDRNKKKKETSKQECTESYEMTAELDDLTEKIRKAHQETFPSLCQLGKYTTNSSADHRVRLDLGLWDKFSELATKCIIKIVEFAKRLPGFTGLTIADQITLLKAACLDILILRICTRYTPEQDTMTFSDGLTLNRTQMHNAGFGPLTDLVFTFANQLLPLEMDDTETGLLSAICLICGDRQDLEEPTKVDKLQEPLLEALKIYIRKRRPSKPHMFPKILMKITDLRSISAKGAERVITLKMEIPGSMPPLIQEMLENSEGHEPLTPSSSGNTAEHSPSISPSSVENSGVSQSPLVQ
The assay is described as follows: Agonist activity at human RARbeta expressed in human MG63 cells co-transfected with RARE3-SV40-Luc assessed as transcriptional efficacy at 10^-6 M after 2 days by luciferase reporter gene assay realtive to 9-cis-retinoic acid. Format: functional, cell-based. Conditions: MG-63.

For assay [2], the target named is T2, Cellular retinoic acid-binding protein 2 (Rattus norvegicus) (UniProt P51673).
T2 sequence (whole entry): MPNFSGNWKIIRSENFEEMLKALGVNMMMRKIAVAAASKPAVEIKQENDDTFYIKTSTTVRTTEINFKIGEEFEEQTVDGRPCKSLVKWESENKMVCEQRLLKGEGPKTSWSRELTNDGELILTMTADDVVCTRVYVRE
In words: Agonist activity at rat CRABP2 expressed in human MG63 cells co-transfected with RXRE-SV40-Luc assessed as transcriptional efficacy at 10^-6 M after 2 days by luciferase reporter gene assay realtive to 9-cis-retinoic acid. It is filed as functional, cell-based. As to conditions: MG-63.

Regarding `CC(C)=C1CC[C@@H](C)C=C1/C=C/C(C)=C\C=C\C(C)=C\C(=O)O`, the Ratio in assay [1] stood at 0.5; in assay [2], 1.5.
On to `CC(=C/C=C/C(C)=C/C(=O)O)/C=C/C1=C[C@H](C)CC[C@H]1C(C)C`, for which the Ratio in assay [1] came out at 0.25; in assay [2] it was 1.12.
In the case of `CC(C)=C1CC[C@H](C)C=C1/C=C/C(C)=C\C=C\C(C)=C\C(=O)O`, the Ratio in assay [1] amounted to 0.32; in assay [2], 2.06.
For `C=C(C)[C@@H]1CC[C@@H](C)C=C1/C=C/C(C)=C\C=C\C(C)=C\C(=O)O`, in that order: 0.35 and 1.07.
In the case of `C/C(=C/C=C/C(C)=C/C(=O)O)C1=C[C@H](C)CC[C@H]1C(C)C`, the Ratio stood at 0.14 in assay [1] and 0.37 in assay [2].
In the same order, the values of `CC(=C/C=C/C(C)=C/C(=O)O)/C=C/C1=C[C@H]2C[C@@H]([C@@H]1C)C2(C)C` are 1.48 and 0.52.
On to `C/C(=C/C=C/C(C)=C/C(=O)O)C1=CC(C)(C)[C@@]23CC[C@@H](C2)C(C)(C)C3=C1`, for which the Ratio in assay [1] was found to be 0.98; in assay [2], 0.71.
Take `CC(=C/C=C/C(C)=C/C(=O)O)/C=C/C1=C[C@]2(C(C)C)C[C@@H]2[C@H]1C`: the Ratio in assay [1] was found to be 1.03; in assay [2], 2.52.
For `CC(=C/C=C/C(C)=C/C(=O)O)/C=C/C1=C[C@@H]2C[C@H]([C@H]1C)C2(C)C`, in that order: 0.89 and 1.3.
For `C/C(=C/C=C/C(C)=C/C(=O)O)C1=C[C@H]2CC[C@]1(C)C2(C)C`, in that order: 0.04 and 0.18.
With `CC(=C/C=C/C(C)=C/C(=O)O)/C=C/C1=CC2CC[C@]1(C)C2(C)C` (single isomer, unassigned), the Ratio in assay [1] is 1.99; in assay [2] it was 0.66.
With `CC(=C/C=C/C(C)=C/C(=O)O)/C=C/C1=CC[C@H]2C[C@@H]1C2(C)C`, the Ratio in assay [1] amounted to 1.92; in assay [2], 2.42.
For `C=C(C)[C@H]1CC[C@H](C)C=C1/C=C/C(C)=C\C=C\C(C)=C\C(=O)O`, in that order: 1.33 and 1.76.
For `C=C(C)[C@@H]1CCC2=CC(\C(C)=C/C=C/C(C)=C/C(=O)O)=CC[C@]2(C)[C@H]1C`, in that order: 0.1 and 0.23.
Take `CC(=C/C=C/C(C)=C/C(=O)O)/C=C/C1=C[C@@H](C)CC[C@@H]1C(C)C`: the Ratio in assay [1] came out at 0.38; in assay [2], 1.37.
For `CC(=C/C=C/C(C)=C/C(=O)O)/C=C/C1=C[C@@H]2CC[C@@]1(C)C2(C)C`, in that order: 1.36 and 2.34.
